Assay results from patent US11459323B2, “Monocyclic β-lactam compound for treating bacterial infection” (MEDSHINE DISCOVERY INC., priority 2018, dated 2022).
Converted amounts (≈) assume the structure as drawn.

Columns and labels:
[1] = system: Acinetobacter baumannii ATCC-BAA-1792; assay: MIC on Acinetobacter baumannii strains; assay type: cell-based; conditions: ATCCBAA1792, ATCC-BAA-1792, read-out: MIC
Excerpt: (§1) Twelve strains of Acinetobacter baumannii, A. baumannii ATCC 17978 (ATCC-BAA-1605, ATCC-BAA-1789, ATCC-BAA-1790, ATCC-BAA-1791, ATCC-BAA-1792, ATCC-BAA-1793, ATCC-BAA-1794, ATCC-BAA-1795, ATCC-BAA-1799, ATCC-BAA-1800, ATCC 19606, ATCC 17978) were used to determine the minimum inhibitory concentration (MIC) of the compounds by micro-liquid dilution method according to the Institute of Clinical and Laboratory Standard (CLSI) requirements.

[2] = system: Acinetobacter baumannii ATCC-BAA-1799; assay: MIC on Acinetobacter baumannii strains; assay type: cell-based; conditions: ATCCBAA1799
Excerpt: as §1

[3] = system: Acinetobacter baumannii ATCC-BAA-1800; assay: MIC on Acinetobacter baumannii strains; assay type: cell-based; conditions: ATCCBAA1800, ATCC-BAA-1800, read-out: MIC
Excerpt: as §1

[4] = system: Acinetobacter baumannii ATCC-BAA-1791; assay: MIC on Acinetobacter baumannii strains; assay type: cell-based; conditions: ATCCBAA1791
Excerpt: as §1

[5] = system: Acinetobacter baumannii ATCC-BAA-1793; assay: MIC on Acinetobacter baumannii strains; assay type: cell-based; conditions: ATCCBAA1793, ATCC-BAA-1793, read-out: MIC
Excerpt: as §1

[6] = system: Acinetobacter baumannii ATCC-BAA-1789; assay: MIC on Acinetobacter baumannii strains; assay type: cell-based; conditions: ATCCBAA1789
Excerpt: as §1

[7] = system: Acinetobacter baumannii ATCC 17978; assay: MIC on Acinetobacter baumannii strains; assay type: cell-based; conditions: ATCC17978
Excerpt: as §1

[8] = system: Acinetobacter baumannii ATCC 19606; assay: MIC on Acinetobacter baumannii strains; assay type: cell-based; conditions: ATCC19606
Excerpt: as §1

[9] = system: Acinetobacter baumannii ATCC-BAA-1795; assay: MIC on Acinetobacter baumannii strains; assay type: cell-based; conditions: ATCCBAA1795
Excerpt: as §1

[10] = system: Acinetobacter baumannii ATCC-BAA-1794; assay: MIC on Acinetobacter baumannii strains; assay type: cell-based; conditions: ATCCBAA1794, ATCC-BAA-1794, read-out: MIC
Excerpt: as §1

[11] = system: Acinetobacter baumannii ATCC-BAA-1605; assay: MIC on Acinetobacter baumannii strains; assay type: cell-based; conditions: ATCCBAA1605
Excerpt: as §1

[12] = system: Acinetobacter baumannii ATCC-BAA-1790; assay: MIC on Acinetobacter baumannii strains; assay type: cell-based; conditions: ATCCBAA1790, ATCC-BAA-1790, read-out: MIC
Excerpt: as §1

[13] = system: Pseudomonas aeruginosa PA14; assay: Lungs of immunosuppressed mice infected with Pseudomonas aeruginosa (2), lung bacterial load; assay type: in vivo; conditions: 24 hours after infection, day, ip at 2 h, 4 h, 6 h, 8 h
Procedure: Pseudomonas aeruginosa PA14. 60 mice were intraperitoneally injected with 150 mg/kg cyclophosphamide on day 1 and day 4 to give immunosuppressed mice. […] [table] The mice were injected with 50 μL of bacterial solution (2×10^3 CFU) through the airway. 2 hours after the infection, 4 mice in the model group was sacrificed by removing cervical vertebra. Two hours after infection, the drugs were administered by groups, and the mice were administered intraperitoneally once at 2 hours, 4 hours, 6 hours, and 8 hours, a total of 4 times. Mice of each group were sacrificed by removing cervical vertebra 24 hours after infection, lung and kidney tissues were taken aseptically and put into a sterilized tissue homogenate tube, weighed, and an appropriate amount of normal saline (NS) was added, the mixture was homogenized by a homogenizer for 1 min, the lung tissues of the model group were diluted 10^4, 10^5, 10^6 times, the lung tissues of each administration group were diluted 10, 100 times, the kidney tissues of the model group were diluted 10^2, 10^3, 10^4 times, and the lung tissues of each administration group were diluted 10 times, the obtained mixtures were coated on TSA plates using spiral coater, then incubated at 37° C. overnight, and the CFU was counted with a colony counter. Graphpad Prism mapping software was used to make scatter plots of lung tissue CFU. SPSS19.0 software was used to count CFU and average body weight, and analysis of variance was used to analyze differences between groups.

[14] = system: P. aeruginosa ATCC 35151; assay: MIC by micro-liquid dilution method (CLSI); assay type: cell-based; conditions: Pseudomonas aeruginosa, ATCC35151
[15] = system: Pseudomonas aeruginosa W29; assay: MIC on clinically isolated bacteria; assay type: cell-based; conditions: read-out: MIC
Excerpt: (§2) Twenty-five strains of clinically isolated Acinetobacter baumannii and twenty-seven strains of Pseudomonas aeruginosa were respectively selected and used to determine the minimum inhibitory concentration (MIC) of the compounds by micro-liquid dilution method according to the Institute of Clinical and Laboratory Standard (CLSI) requirements.

[16] = system: Acinetobacter baumannii C408; assay: MIC on clinically isolated bacteria; assay type: cell-based; conditions: Acinetobacter baumannii C408; read-out: Minimum Inhibitory Concentration (MIC)
Excerpt: as §2

[17] = system: Acinetobacter baumannii C283; assay: MIC on clinically isolated bacteria; assay type: cell-based; conditions: Acinetobacter baumannii C283; read-out: Minimum Inhibitory Concentration (MIC)
Excerpt: as §2

[18] = system: Acinetobacter baumannii C427; assay: MIC on clinically isolated bacteria; assay type: cell-based; conditions: Acinetobacter baumannii C427; read-out: Minimum Inhibitory Concentration (MIC)
Excerpt: as §2

[19] = system: Acinetobacter baumannii C241; assay: MIC on clinically isolated bacteria; assay type: cell-based; conditions: Acinetobacter baumannii C241; read-out: Minimum Inhibitory Concentration (MIC)
Excerpt: as §2

[20] = system: Acinetobacter baumannii C403; assay: MIC on clinically isolated bacteria; assay type: cell-based; conditions: Acinetobacter baumannii C403; read-out: Minimum Inhibitory Concentration (MIC)
Excerpt: as §2

[21] = system: Acinetobacter baumannii C279; assay: MIC on clinically isolated bacteria; assay type: cell-based; conditions: Acinetobacter baumannii C279; read-out: Minimum Inhibitory Concentration (MIC)
Excerpt: as §2

[22] = system: Acinetobacter baumannii C251; assay: MIC on clinically isolated bacteria; assay type: cell-based; conditions: Acinetobacter baumannii C251; read-out: Minimum Inhibitory Concentration (MIC)
Excerpt: as §2

[23] = system: Pseudomonas aeruginosa C755; assay: MIC on clinically isolated bacteria; assay type: cell-based; conditions: read-out: MIC
Excerpt: as §2

[24] = system: Pseudomonas aeruginosa W21; assay: MIC on clinically isolated bacteria; assay type: cell-based; conditions: read-out: MIC
Excerpt: as §2

[25] = system: Acinetobacter baumannii C401; assay: MIC on clinically isolated bacteria; assay type: cell-based; conditions: Acinetobacter baumannii C401; read-out: Minimum Inhibitory Concentration (MIC)
Excerpt: as §2

[26] = system: E. coli ATCC 25922; assay: MIC by micro-liquid dilution method (CLSI); assay type: cell-based; conditions: Escherichia coli; E. coli ATCC25922; read-out: MIC

Compound | MIC [15] | MIC [16] | MIC [17] | MIC [18] | MIC [19] | MIC [20] | MIC [21] | MIC [22] | MIC [23] | MIC [24] | MIC [25] | also measured
C[C@H]1[C@H](NC(=O)/C(=N\OC(C)(C)C(=O)O)c2csc(N)n2)C(=O)N1S(=O)(=O)O [Aztreonam, reference compound] | 32 µg/mL (≈ 73.5 µM) | 32 µg/mL (≈ 73.5 µM) | 64 µg/mL (≈ 147 µM) | 64 µg/mL (≈ 147 µM) | 128 µg/mL (≈ 294 µM) | 64 µg/mL (≈ 147 µM) | 64 µg/mL (≈ 147 µM) | 32 µg/mL (≈ 73.5 µM) | 4 µg/mL (≈ 9.19 µM) | 16 µg/mL (≈ 36.7 µM) | 32 µg/mL (≈ 73.5 µM) | MIC [1]: 64 µg/mL (≈ 147 µM); MIC [2]: 128 µg/mL (≈ 294 µM); MIC [3]: 32 µg/mL (≈ 73.5 µM); MIC [4]: 32 µg/mL (≈ 73.5 µM); MIC [5]: 64 µg/mL (≈ 147 µM); MIC [6]: 64 µg/mL (≈ 147 µM); MIC [7]: 32 µg/mL (≈ 73.5 µM); MIC [8]: 32 µg/mL (≈ 73.5 µM); MIC [9]: 32 µg/mL (≈ 73.5 µM); MIC [10]: 32 µg/mL (≈ 73.5 µM); MIC [11]: 128 µg/mL (≈ 294 µM); MIC [12]: 32 µg/mL (≈ 73.5 µM); LOG10-of bacterial load ([13]; total dosage 100 mg/kg): 6.91 ± 1.63; MIC [14]: ≤ 0.125 µg/mL; MIC [26]: 0.25 µg/mL (≈ 0.574 µM)
CC1(C)[C@H](NC(=O)/C(=N\O[C@@H](COc2ccc3c(c2)CN(C(=N)NCCCCN)C3)C(=O)O)c2csc(N)n2)C(=O)N1OS(=O)(=O)O [Compound 36] | 0.5 µg/mL (≈ 0.717 µM) | 2 µg/mL (≈ 2.87 µM) | 2 µg/mL (≈ 2.87 µM) | 2 µg/mL (≈ 2.87 µM) | 2 µg/mL (≈ 2.87 µM) | 2 µg/mL (≈ 2.87 µM) | 2 µg/mL (≈ 2.87 µM) | 16 µg/mL (≈ 22.9 µM) | 0.25 µg/mL (≈ 0.358 µM) | 0.25 µg/mL (≈ 0.358 µM) | 1 µg/mL (≈ 1.43 µM) | 
CC1(C)[C@H](NC(=O)/C(=N\O[C@@H](COc2ccc3c(c2)CN(C(=N)N[C@@H]2CCCNC2)C3)C(=O)O)c2csc(N)n2)C(=O)N1OS(=O)(=O)O [Compound 41] | 1 µg/mL (≈ 1.41 µM) | 2 µg/mL (≈ 2.82 µM) | 2 µg/mL (≈ 2.82 µM) | 4 µg/mL (≈ 5.64 µM) | 4 µg/mL (≈ 5.64 µM) | 4 µg/mL (≈ 5.64 µM) | 2 µg/mL (≈ 2.82 µM) | 8 µg/mL (≈ 11.3 µM) | 0.5 µg/mL (≈ 0.704 µM) | 0.5 µg/mL (≈ 0.704 µM) | 1 µg/mL (≈ 1.41 µM) | LOG10-of bacterial load ([13]; total dosage 20 mg/kg): 4.12 ± 1.50; LOG10-of bacterial load ([13]; total dosage 60 mg/kg): 3.65 ± 2.15
CC1(C)[C@H](NC(=O)/C(=N\O[C@@H](COc2ccc3c(c2)CN(C(=N)NOCCN)C3)C(=O)O)c2csc(N)n2)C(=O)N1OS(=O)(=O)O [Compound 43] | 8 µg/mL (≈ 11.7 µM) | 8 µg/mL (≈ 11.7 µM) | 8 µg/mL (≈ 11.7 µM) | 16 µg/mL (≈ 23.3 µM) | > 16 µg/mL | 16 µg/mL (≈ 23.3 µM) | 8 µg/mL (≈ 11.7 µM) | 8 µg/mL (≈ 11.7 µM) | 1 µg/mL (≈ 1.46 µM) | 1 µg/mL (≈ 1.46 µM) | 8 µg/mL (≈ 11.7 µM) | 
